Measured values reported in patent US12528790B2, “Amide derivative having antiviral activity” (Shionogi & Co., Ltd., priority 2020, dated 2026).
Like-named read-outs stand apart in the source and are kept apart here.

What was measured:
[1] = system: RSV A2 strain; experiment: In vitro CPE (CytoPathic Effect) inhibition effect evaluation test, RSV type A; assay type: cell-based
Outline: (§1)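 EC50 is the concentration giving 50% inhibition of virus-induced cytopathic effect, fitted by nonlinear regression from CellTiter-Glo 2.0 viability. Compounds in 3-fold series were co-incubated at 37 °C with HEp-2 cells and RSV: A2 strain for 4 days, B (Wash/18537) for 5 days; uninfected wells served as control.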

[2] = system: RSV B (Wash/18537 strain); experiment: In vitro CPE (CytoPathic Effect) inhibition effect evaluation test, RSV type B; assay type: cell-based
Outline: as §1

[3] = human respiratory syncytial virus, inhibitory effect against RSV type A (RSV A2 strain), HEp-2 cells, CPE inhibition, read-out: EC50
[4] = human respiratory syncytial virus, inhibitory effect against RSV type B, CPE inhibition, read-out: EC50
[5] = human respiratory syncytial virus, HEp-2, 96 h, read-out: EC50, inhibitory effect against RSV type A (CPE inhibition)
[6] = human respiratory syncytial virus, HEp-2, 120 h, HEp-2 cells, RSV B (Wash/18537 strain), 5 days, CellTiter-Glo, read-out: EC50, inhibitory effect against RSV type B (CPE inhibition)
[7] = inhibitory effect against RSV type A (RSV A2 strain), HEp-2 cells, CPE inhibition, read-out: EC50
[8] = inhibitory effect against RSV type B, CPE inhibition, read-out: EC50

SMILES | EC50 [1, 3] [nM] | EC50 [2, 4] [nM] | further results
CC(F)(F)CN1CCC(Oc2ccc3c(-c4ncc(C(=O)NC5(C(=O)O)C6CC7CC(C6)CC5C7)c(C(F)(F)F)n4)cn(C4CCOCC4)c3c2)CC1 (stereo not shown) [Compound I-578] | < 10 | < 10 | 
COC1CCN(C(=O)c2ccc3c(c2)C2(CCCCC2)CN3c2ncc(C(=O)NC3(C(=O)O)C4CC5CC(C4)CC3C5)c(C(C)(F)F)n2)CC1 (stereo not shown) [Compound I-609] | < 10 | < 10 | 
CC(F)(F)c1nc(N2CC3(CCOCC3)c3cc(OC4CCN(c5ncc(F)cn5)CC4)ncc32)ncc1C(=O)N[C@]1(C(=O)O)[C@@H]2CC3C[C@H]1C[C@@](F)(C3)C2 [Compound I-599] | < 10 | < 10 | 
CC(F)(F)c1nc(N2CC3(CCOCC3)c3cc(OC4CCN(CCC(F)(F)F)CC4)ccc32)ncc1C(=O)NC1(C(=O)O)C2CC3CC(C2)CC1C3 (stereo not shown) [Compound I-529] | < 10 | < 10 | 
O=C(NC1(C(=O)O)C2CC3CC(C2)CC1C3)c1cnc(-c2cn(C3CCC(F)(F)CC3)c3cc(OC4CCC5(CC4)COC5)ccc23)nc1C(F)(F)F (stereo not shown) [Compound I-256] | < 10 | < 10 | 
COC[C@@H](C)n1cc(-c2ncc(C(=O)NC3(C(=O)O)C4CC5CC(C4)CC3C5)c(C(F)(F)F)n2)c2ccc(O[C@H]3CC[C@H](N4CC(F)(F)C4)CC3)cc21 (stereo partly shown) [Compound I-507] | < 10 | < 10 | 
O=C(NC1(C(=O)O)C2CC3CC(C2)CC1C3)c1cnc(N2CC3(CCOCC3)c3cc(OC4CCN(C5COC5)CC4)ccc32)nc1C(F)(F)F (stereo not shown) [Compound I-184] | < 10 | < 10 | 
CC(F)(F)CN1CCC(Oc2ccc3c(-c4ncc(C(=O)NC5(C(=O)O)C6CC7CC(C6)CC5C7)c(C(F)(F)F)n4)cn(C4CC4)c3c2)CC1 (stereo not shown) [Compound I-544] | < 10 | 10 to 100 | 
COCc1ccc(-c2ccc3c(c2)CCN3c2ncc(C(=O)NC3(C(=O)O)CCCCC3)c(C(F)(F)F)n2)cc1 [Compound I-9] | 10 to 100 | 100 to 5000 | 
O=C(NC1(C(=O)O)C2CC3CC(C2)CC1C3)c1cnc(-c2nn(C3CCOCC3)c3cc(OC4CCN(c5ncccn5)CC4)ccc23)nc1C(F)(F)F (stereo not shown) [Compound I-159] |  |  | EC50 [1, 5]: 0.88 nM; EC50 [2, 6]: 3 nM
O=C(NC1(C(=O)O)C2CC3CC(C2)CC1C3)c1cnc(-c2cn(C3CCC(F)(F)CC3)c3cc(OC4CC(CN5CC(F)(F)C5)C4)ccc23)nc1C(F)(F)F (single isomer, unassigned) [Compound I-516] | < 10 | 10 to 100 | 
COC[C@@H](C)n1cc(-c2ccc(C(=O)NC3(C(=O)O)C4CC5CC(C4)CC3C5)c(C(F)(F)F)n2)c2ccc(O[C@H]3CC[C@H](N4CC(F)(F)C4)CC3)cc21 (stereo partly shown) [Compound I-581] | < 10 | < 10 | 
O=C(NC1(C(=O)O)C2CC3CC(C2)CC1C3)c1cnc(-c2cn(C3CC3)c3cc(O[C@H]4CC[C@H](N5CC(F)(F)C5)CC4)ccc23)nc1C(F)(F)F (stereo partly shown) [Compound I-497] | < 10 | < 10 | 
CC(F)(F)c1nc(N2CC3(CCOCC3)c3cc(OC4CCN(C5CC(F)(F)C5)CC4)ccc32)ncc1C(=O)NC1(C(=O)O)C2CC3CC(C2)CC1C3 (stereo not shown) [Compound I-551] | < 10 | < 10 | 
CC(F)(F)CN1CCC(Oc2ccc3c(-c4ccc(C(=O)NC5(C(=O)O)C6CC7CC(C6)CC5C7)c(C(F)(F)F)n4)cn(C4CCC(F)(F)CC4)c3c2)CC1 (stereo not shown) [Compound I-512] | < 10 | 10 to 100 | 
O=C(NC1(C(=O)O)C2CC3CC(C2)CC1C3)c1ccc(-c2cn(C3CC3)c3cc(O[C@H]4CC[C@H](N5CC(F)(F)C5)CC4)ccc23)nc1C(F)(F)F (stereo partly shown) [Compound I-513] | < 10 | < 10 | 
O=C(NC1(C(=O)O)C2CC3CC(C2)CC1C3)c1cnc(N2CCc3cc(OCCC4CCOCC4)ccc32)nc1C(F)(F)F (stereo not shown) [Compound I-23] |  |  | EC50 [1, 5]: 0.96 nM; EC50 [2, 6]: 16 nM
CC(F)(F)c1nc(N2CC3(CCCCC3)c3cc(OC4CCN(c5ncccn5)CC4)ccc32)ncc1C(=O)NC1(C(=O)O)C2CC3CC(C2)CC1C3 (stereo not shown) [Compound I-380] | < 10 | < 10 | 
O=C(NC1(C(=O)O)C2CC3CC(C2)CC1C3)c1cnc(N2CC3(CCCCC3)c3cc(O[C@H]4CCN(c5ncc(F)cn5)C4)ccc32)nc1C(F)(F)F (stereo partly shown) [Compound I-524] | < 10 | 100 to 5000 | 

SMILES | EC50 [1, 3] [nM] | EC50 [2, 4] [nM] | further results
O=C(NC1(C(=O)O)C2CC3CC(C2)CC1C3)c1cnc(-c2cn(C3CCC(F)(F)CC3)c3cc(OC4CCN(c5ncccn5)CC4)ncc23)nc1C(F)(F)F (stereo not shown) [Compound I-268] |  |  | EC50 [1, 5]: 1.4 nM; EC50 [2, 6]: 4.3 nM
O=C(NC1(C(=O)O)C2CC3CC(C2)CC1C3)c1cnc(N2CC3(CCCCC3)c3cc(OC4CCC(N5CC(F)(F)C5)CC4)ccc32)nc1C(F)(F)F (stereo not shown) [Compound I-438] | < 10 | < 10 | 
O=C(NC1(C(=O)O)C2CC3CC(C2)CC1C3)c1cnc(N2CC3(CCCCC3)c3cc(OC4CCN(C5CC(F)(F)C5)CC4)ccc32)nc1C(F)(F)F (stereo not shown) [Compound I-393] | < 10 | 10 to 100 | 
O=C(NC1(C(=O)O)C2CC3CC(C2)CC1C3)c1cnc(N2CC3(CCOC3)c3cc(OC4CCN(CC(F)(F)F)CC4)ccc32)nc1C(F)(F)F (racemic) [Compound I-467] | < 10 | < 10 | 
CC(=O)N1CC(N2CCC(Oc3ccc4c(c3)C3(CCCCC3)CN4c3ncc(C(=O)NC4(C(=O)O)C5CC6CC(C5)CC4C6)c(C(F)(F)F)n3)CC2)C1 (stereo not shown) [Compound I-492] | < 10 | 10 to 100 | 
O=C(NC1(C(=O)O)C2CC3CC(C2)CC1C3)c1ccc(-c2cn(-c3cccnc3)c3cc(OC4CCN(c5ncccn5)CC4)ccc23)nc1C(F)(F)F (stereo not shown) [Compound I-177] | < 10 | < 10 | 
O=C(NC1(C(=O)O)C2CC3CC(C2)CC1C3)c1cnc(N2CC3(CCCCC3)c3cc(OC4CCN(CC(F)(F)F)CC4)ccc32)nc1C(F)(F)F (stereo not shown) [Compound I-382] | < 10 | 10 to 100 | 
CC(F)(F)c1nc(N2CC3(CCCCC3)c3cc(OC4CCC(N5CCC(F)(F)C5)CC4)ccc32)ncc1C(=O)NC1(C(=O)O)C2CC3CC(C2)CC1C3 (stereo not shown) [Compound I-539] |  |  | EC50 [1, 7]: < 10 nM; EC50 [2, 8]: 10 to 100 nM
O=C(NC1(C(=O)O)C2CC3CC(C2)CC1C3)c1ccc(-c2cn(-c3ccncc3)c3cc(OC4CCN(c5ncccn5)CC4)ccc23)nc1C(F)(F)F (stereo not shown) [Compound I-176] | < 10 | < 10 | 
O=C(NC1(C(=O)O)C2CC3CC(C2)CC1C3)c1cnc(N2CC3(CCOCC3)c3cc(OC4CCN(CC(F)(F)F)CC4)ccc32)nc1C(F)(F)F (stereo not shown) [Compound I-384] | < 10 | < 10 | 
O=C(NC1(C(=O)O)C2CC3CC(C2)CC1C3)c1cnc(N2CC3(CCCCC3)c3cc(O[C@H]4CC[C@H](N5CC(F)(F)C5)CC4)ncc32)nc1C(F)(F)F (stereo partly shown) [Compound I-595] | < 10 | < 10 | 
O=C(NC1(C(=O)O)C2CC3CC(C2)CC1C3)c1cnc(N2CC3(CCOCC3)c3cc(OC4CCN(C5CC5)CC4)ccc32)nc1C(F)(F)F (stereo not shown) [Compound I-92] |  |  | EC50 [1, 7]: < 10 nM; EC50 [2, 8]: < 10 nM
O=C(NC1(C(=O)O)C2CC3CC(C2)CC1C3)c1cnc(-c2cn(C3CC4(CC4)C3)c3cc(O[C@H]4CC[C@H](N5CC(F)(F)C5)CC4)ccc23)nc1C(F)(F)F (stereo partly shown) [Compound I-531] | < 10 | < 10 | 
O=C(NC1(C(=O)O)C2CC3CC(C2)CC1C3)c1cnc(N2CC3(CCCCC3)c3cc(OC4CCC5(CC4)COC5)ccc32)nc1C(F)(F)F (stereo not shown) [Compound I-399] | < 10 | 10 to 100 | 
CC(F)(F)c1nc(N2CC3(CCCC3)c3cc(O[C@@H]4CCN(CC(F)(F)F)C4)ccc32)ncc1C(=O)NC1(C(=O)O)C2CC3CC(C2)CC1C3 (stereo partly shown) [Compound I-598] | < 10 | < 10 | 
CC(F)(F)c1nc(N2CC3(CCCCC3)c3cc(CN4CCN(c5ncccn5)CC4)ccc32)ncc1C(=O)NC1(C(=O)O)C2CC3CC(C2)CC1C3 (stereo not shown) [Compound I-464] | < 10 | 100 to 5000 | 
O=C(N[C@]1(C(=O)O)[C@@H]2CC3C[C@H]1C[C@@](F)(C3)C2)c1cnc(N2CC3(CCOCC3)c3cc(OC4CCN(c5ncccn5)CC4)ccc32)nc1C(F)(F)F [Compound I-165] |  |  | EC50 [1, 5]: 0.37 nM; EC50 [2, 6]: 0.62 nM
CC[C@@H](C)n1cc(-c2ncc(C(=O)NC3(C(=O)O)C4CC5CC(C4)CC3C5)c(C(F)(F)F)n2)c2ccc(O[C@H]3CC[C@H](N4CC(F)(F)C4)CC3)cc21 (stereo partly shown) [Compound I-613] | < 10 | < 10 | 
CC(F)(F)c1nc(N2CC3(CC3)c3cc(O[C@H]4CC[C@H](N5CC(F)(F)C5)CC4)ccc32)ncc1C(=O)NC1(C(=O)O)C2CC3CC(C2)CC1C3 (stereo partly shown) [Compound I-597] | < 10 | < 10 | 
